By IC50 is commonly meant the concentration that inhibits the measured activity by half. A low value points to higher potency.

The target of this experiment is H1047R PIK3CA enzyme (Homo sapiens, UniProt P42336, H1047R). The experiment can be described thus: ADP-Glo Biochemical PIK3CA Kinase Assay. (In general: In ADP-Glo the light output rises with the ADP produced.)
Chain of H1047R PIK3CA enzyme (P42336 whole entry H1047R): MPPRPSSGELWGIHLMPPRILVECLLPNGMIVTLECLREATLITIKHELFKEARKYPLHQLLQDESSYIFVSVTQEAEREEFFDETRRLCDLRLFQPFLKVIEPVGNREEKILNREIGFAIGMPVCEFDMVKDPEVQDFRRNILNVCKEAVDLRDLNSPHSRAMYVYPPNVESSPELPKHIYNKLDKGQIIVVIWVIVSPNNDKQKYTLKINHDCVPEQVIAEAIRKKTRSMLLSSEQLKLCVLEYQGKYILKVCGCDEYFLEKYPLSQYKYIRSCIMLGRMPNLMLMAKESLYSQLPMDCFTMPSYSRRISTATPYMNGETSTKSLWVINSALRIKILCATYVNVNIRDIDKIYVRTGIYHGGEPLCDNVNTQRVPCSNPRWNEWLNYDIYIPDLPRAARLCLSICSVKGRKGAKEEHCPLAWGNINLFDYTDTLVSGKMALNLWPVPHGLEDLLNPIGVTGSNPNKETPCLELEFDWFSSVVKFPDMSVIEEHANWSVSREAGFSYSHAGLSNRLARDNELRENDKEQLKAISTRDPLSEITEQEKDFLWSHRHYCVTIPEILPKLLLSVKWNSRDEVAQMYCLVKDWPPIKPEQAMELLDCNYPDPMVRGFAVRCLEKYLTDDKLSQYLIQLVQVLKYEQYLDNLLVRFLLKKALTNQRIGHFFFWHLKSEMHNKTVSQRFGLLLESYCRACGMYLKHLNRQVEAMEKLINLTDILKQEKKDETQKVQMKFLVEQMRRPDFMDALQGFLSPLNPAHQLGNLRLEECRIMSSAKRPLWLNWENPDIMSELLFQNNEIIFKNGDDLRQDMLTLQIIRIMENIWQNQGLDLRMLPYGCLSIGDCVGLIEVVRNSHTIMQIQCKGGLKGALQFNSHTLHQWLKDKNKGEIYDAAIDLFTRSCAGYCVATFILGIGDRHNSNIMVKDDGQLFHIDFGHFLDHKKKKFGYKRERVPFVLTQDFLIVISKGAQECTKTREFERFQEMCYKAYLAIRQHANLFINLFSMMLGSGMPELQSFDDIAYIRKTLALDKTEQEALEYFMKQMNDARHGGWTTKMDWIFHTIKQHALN
Chain of H1047R PIK3CA enzyme (P27986 whole entry partner): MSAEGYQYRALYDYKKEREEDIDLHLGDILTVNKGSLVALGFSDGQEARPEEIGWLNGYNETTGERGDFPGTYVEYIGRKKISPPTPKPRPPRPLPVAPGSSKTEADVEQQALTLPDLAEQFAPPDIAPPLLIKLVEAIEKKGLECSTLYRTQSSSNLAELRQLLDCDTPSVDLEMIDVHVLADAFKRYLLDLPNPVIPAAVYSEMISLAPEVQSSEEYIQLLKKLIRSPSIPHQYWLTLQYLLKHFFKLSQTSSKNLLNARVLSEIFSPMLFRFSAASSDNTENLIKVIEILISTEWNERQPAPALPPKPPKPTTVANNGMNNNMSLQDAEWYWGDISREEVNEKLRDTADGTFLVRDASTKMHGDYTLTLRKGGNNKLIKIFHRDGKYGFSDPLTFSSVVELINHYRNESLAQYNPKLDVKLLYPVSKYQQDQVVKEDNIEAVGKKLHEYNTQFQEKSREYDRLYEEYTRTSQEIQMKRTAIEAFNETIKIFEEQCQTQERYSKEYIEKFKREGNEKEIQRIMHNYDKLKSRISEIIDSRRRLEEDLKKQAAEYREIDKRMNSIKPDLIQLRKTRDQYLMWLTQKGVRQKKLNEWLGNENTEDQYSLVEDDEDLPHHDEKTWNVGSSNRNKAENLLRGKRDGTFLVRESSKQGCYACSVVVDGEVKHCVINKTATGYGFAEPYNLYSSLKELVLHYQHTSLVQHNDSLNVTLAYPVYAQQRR
Compound `O=C(Nc1cc(NC(=O)c2cc(F)cc(C(F)(F)F)c2)c2c(c1)C(=O)NC2c1cc(F)ccc1Cl)c1cccnc1` (stereo not drawn) [Compound I-1356] had an IC50 of no more than 100 nM. For `O=C(Nc1cc(OCC2(CO)COC2)cc2c1C(c1cc(F)ccc1Cl)NC2=O)c1cc(F)cc(C(F)(F)F)c1` (stereo not drawn) [Compound I-1357] the value was no more than 100 nM; for `O=C1NCC(c2cc(NC(=O)c3cc(F)cc(C(F)(F)F)c3)c3c(c2)C(=O)NC3c2cc(F)ccc2Cl)O1` (stereo not drawn) [Compound I-1359], no more than 100 nM; for `O=C1CC(c2cc(NC(=O)c3cc(F)cc(C(F)(F)F)c3)c3c(c2)C(=O)NC3c2cc(F)ccc2Cl)CN1` (stereo not drawn) [Compound I-1360], no more than 100 nM. Next, `O=C(Nc1cc(C2COCCO2)cc2c1C(c1cc(F)ccc1Cl)NC2=O)c1cc(F)cc(C(F)(F)F)c1` (stereo not drawn) [Compound I-1361]: 100 to 500 nM. Regarding `O=C1NC(c2cc(F)ccc2Cl)c2c(NC(=O)C3CC4(CCC4)C3)cc(Br)cc21` (stereo not drawn) [Compound I-1362], the IC50 was 1000 to 10000 nM. Compound `O=C1NC(c2cc(F)ccc2Cl)c2c(NC(=O)C34CC5CC(CC(O)(C5)C3)C4)cc(Br)cc21` (stereo not drawn) [Compound I-1363] yielded an IC50 of 1000 to 10000 nM. Compound `O=C(Nc1cc(CS(=O)(=O)N2CCOCC2)cc2c1C(c1cc(F)ccc1Cl)NC2=O)c1cc(F)cc(C(F)(F)F)c1` (stereo not drawn) [Compound I-1364] gave an IC50 of no more than 100 nM. The compound `CNS(=O)(=O)Cc1cc(NC(=O)c2cc(F)cc(C(F)(F)F)c2)c2c(c1)C(=O)NC2c1cc(F)ccc1Cl` (stereo not drawn) [Compound I-1365] showed an IC50 of no more than 100 nM.

With `NS(=O)(=O)Cc1cc(NC(=O)c2cc(F)cc(C(F)(F)F)c2)c2c(c1)C(=O)NC2c1cc(F)ccc1Cl` (stereo not drawn) [Compound I-1367], the IC50 was no more than 100 nM.

Take `Nc1nc2ccc(-c3cc(NC(=O)c4cc(F)cc(C(F)(F)F)c4)c4c(c3)C(=O)NC4c3cc(F)ccc3Cl)cn2n1` (stereo not drawn) [Compound I-1368]: the half-maximal inhibitory concentration (IC50) was no more than 100 nM. For `Cc1ncc(C#N)c(-c2cc(NC(=O)c3cc(F)cc(C(F)(F)F)c3)c3c(c2)C(=O)NC3c2cc(F)ccc2Cl)n1` (stereo not drawn) [Compound I-1369] the value was no more than 100 nM. `Nc1nc2cc(-c3cc(NC(=O)c4cc(F)cc(C(F)(F)F)c4)c4c(c3)C(=O)NC4c3cc(F)ccc3Cl)ccn2n1` (stereo not drawn) [Compound I-1370] displayed an IC50 of no more than 100 nM. For `O=C(Nc1cc(-c2ccn3ncnc3c2)cc2c1C(c1cc(F)ccc1Cl)NC2=O)c1cc(F)cc(C(F)(F)F)c1` (stereo not drawn) [Compound I-1371], the IC50 was no more than 100 nM. With `O=C(Nc1cc(-c2ccn3ccnc3c2)cc2c1C(c1cc(F)ccc1Cl)NC2=O)c1cc(F)cc(C(F)(F)F)c1` (stereo not drawn) [Compound I-1372], the IC50 is no more than 100 nM. Consider `Nc1nnc2ccc(-c3cc(NC(=O)c4cc(F)cc(C(F)(F)F)c4)c4c(c3)C(=O)NC4c3cc(F)ccc3Cl)cn12` (stereo not drawn) [Compound I-1373], for which the IC50 was no more than 100 nM. For `O=C(Nc1cc(-c2ccc3nnnn3c2)cc2c1C(c1cc(F)ccc1Cl)NC2=O)c1cc(F)cc(C(F)(F)F)c1` (stereo not drawn) [Compound I-1374] the value was no more than 100 nM; for `O=C(Nc1cc(CC(O)CO)cc2c1C(c1cc(F)ccc1Cl)NC2=O)c1cc(F)cc(C(F)(F)F)c1` (stereo not drawn) [Compound I-1376], no more than 100 nM; for `O=C1NC(c2cc(F)ccc2Cl)c2c(Nc3cc(CO)c(C(F)(F)F)cn3)cccc21` (stereo not drawn) [Compound I-1377], 10000 to 100000 nM.

As to `Cn1nccc1C(=O)c1cc(NC(=O)c2cc(F)cc(C(F)(F)F)c2)c2c(c1)C(=O)NC2c1cc(F)ccc1Cl` (stereo not drawn) [Compound I-1380], the IC50 is no more than 100 nM. Next, `O=C(Nc1cc(Br)cc2c1C(c1cc(F)ccc1Cl)NC2=O)c1cc(F)cc2c1NC(=O)C2(F)F` (stereo not drawn) [Compound I-1381]: 100 to 500 nM; `CN(Cc1cccc(O)c1)C(=O)Nc1cc(Br)cc2c1C(c1cc(F)ccc1Cl)NC2=O` (stereo not drawn) [Compound I-1382]: 10000 to 100000 nM; `O=C1NC(c2cc(F)ccc2Cl)c2c(NC(=O)N3CC4(CCC4)c4ccccc43)cc(Br)cc21` (stereo not drawn) [Compound I-1383]: 100 to 500 nM. For `O=C(Nc1cc(Br)cc2c1C(c1cc(F)ccc1Cl)NC2=O)c1cc(Cl)c(Cl)s1` (stereo not drawn) [Compound I-1384] the value was 500 to 1000 nM.

For the origin of these results see US12581252B2, “Substituted pyrrolo[3,4-b]pyridines as PI3K-α inhibitors” (Relay Therapeutics, Inc., priority 2020, dated 2026).
